Measurements taken from patent publication US20210220356A1, “DIHYDROPYRIMIDINE DERIVATIVES AND USES THEREOF IN THE TREATMENT OF HBV INFECTION OR OF HBV-INDUCED DISEASES” (Janssen Sciences Ireland Unlimited Company, priority 2018, published 2021).
Where two headings read alike, the source gives them in different places.

Tests used:
[1] = Cytotoxicity determination in HepG2.2.15 cells (CCK-8); format: cell-based; conditions: human, HepG2.2.15 cells, 5,000 cells/well, 6 days of compound treatment, CCK-8 absorbance 450 nm, highest concentration 100 uM
Outline: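 HepG2.2.15 cells, 5,000/well in 2% FBS medium, treated 6 days with compound (medium refreshed midway), 8-point 3-fold dilutions from 100 uM top. Viability read by CCK-8, 2.5 h at 37° C, absorbance 450 nm with 630 nm reference; CC50 from curve fitting.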

[2] = tested on: HBV; assay: HBV inhibitory activity in HepG2.2.15 cells (HBV DNA in culture medium by q-PCR); format: cell-based
Outline: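 HepG2.2.15 cells (40,000/well, 2% FBS) treated 6 days with compounds, medium refreshed once; 8 points, 3-fold dilution, top 10 uM. Secreted HBV DNA in medium extracted and quantified by q-PCR; EC50 calculated from dose-response.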

[3] = HepG2.2.15 cells, 40,000 cells/well, 6 days of compound treatment, HBV DNA in culture medium by q-PCR, highest concentration 10 uM, read-out: EC50
[4] = Hepatitis B virus, HepG2.2.15, 144 h, HepG2.2.15 cells, 40,000 cells/well, 6 days of compound treatment, HBV DNA in culture medium by q-PCR, highest concentration 10 uM, read-out: EC50

Row | SMILES | CC50 at 6 days ([1]; HepG2.2.15 cells) | EC50 [2, 3] | CC50 at 6 days [1] | EC50 ([2]; Hepatitis B virus, HepG2.2.15, 144 h) | EC50 [2, 4]
1 | COC(=O)C1=C(C2CCc3nn(CCCC(=O)O)cc3C2)NC(c2nccs2)=NC1c1ccc(F)c(F)c1Cl (single isomer, unassigned) [Compound 74B, 4-(5-(6-(2-chloro-3,4-difluorophenyl)-5-(methoxycarbonyl)-2-(thiazol-2-yl)-3,6-dihydropyrimidin-4-yl)-4,5,6,7-tetrahydro-2H-indazol-2-yl)butanoic acid] | 19.6 µM | 0.0661 µM |  |  | 
2 | COC(=O)C1=C(C2CCc3nc(C(=O)O)oc3C2)NC(c2nccs2)=NC1c1ccc(F)c(F)c1Cl (centres unmarked) [Compound 78c, lithium 6-(6-(2-chloro-3,4-difluorophenyl)-5-(methoxycarbonyl)-2-(thiazol-2-yl)-3,6-dihydropyrimidin-4-yl)-4,5,6,7-tetrahydrobenzo[d]oxazole-2-carboxylate] |  |  | 52 µM | 0.0571 µM | 
3 | CCOC(=O)C1=C(C2CCc3oc(CCC(=O)O)nc3C2)NC(c2nccs2)=NC1c1ccc(F)c(F)c1Cl (single isomer, unassigned) [Compound 57c, 3-(5-(6-(2-Chloro-3,4-difluorophenyl)-5-(ethoxycarbonyl)-2-(thiazol-2-yl)-3,6-dihydropyrimidin-4-yl)-4,5,6,7-tetrahydrobenzo[d]oxazol-2-yl)propanoic acid] | 7.7 µM | 0.0125 µM |  |  | 
4 | CCOC(=O)C1=C(C2CCc3nn(CC(C)(C)C(=O)O)cc3C2)NC(c2nccs2)=NC1c1ccc(F)c(F)c1C (centres unmarked) [Compound 92c, 3-(5-(6-(3,4-difluoro-2-methylphenyl)-5-(ethoxycarbonyl)-2-(thiazol-2-yl)-3,6-dihydropyrimidin-4-yl)-4,5,6,7-tetrahydro-2H-indazol-2-yl)-2,2-dimethylpropanoic acid] | 9.3 µM |  |  |  | 0.0079 µM
5 | COC(=O)C1=C(C2CCc3nn(CCC(=O)O)cc3C2)NC(c2nccs2)=NC1c1ccc(F)cc1C (centres unmarked) [Compound 80c, 3-(5-(6-(4-fluoro-2-methylphenyl)-5-(methoxycarbonyl)-2-(thiazol-2-yl)-3,6-dihydropyrimidin-4-yl)-4,5,6,7-tetrahydro-2H-indazol-2-yl)propanoic acid] | 33.2 µM |  |  |  | 0.0724 µM
6 | COC(=O)C1=C(C2CCc3nc([C@H]4C[C@H](C(=O)O)C4)oc3C2)NC(c2nccs2)=NC1c1ccc(F)c(F)c1Cl (single isomer, unassigned) [Compound 72b, (trans)-3-(6-(6-(2-Chloro-3,4-difluorophenyl)-5-(methoxycarbonyl)-2-(thiazol-2-yl)-3,6-dihydropyrimidin-4-yl)-4,5,6,7-tetrahydrobenzo[d]oxazol-2-yl)cyclobutanecarboxylic acid] | 7 µM | 0.0215 µM |  |  | 
7 | CCOC(=O)C1=C(C2CCc3nn(CCC(=O)O)cc3C2)NC(c2nccs2)=NC1c1ccc(F)cc1C (single isomer, unassigned) [Compound 38a, 3-(5-(5-(Ethoxycarbonyl)-6-(4-fluoro-2-methylphenyl)-2-(thiazol-2-yl)-3,6-dihydropyrimidin-4-yl)-4,5,6,7-tetrahydro-2H-indazol-2-yl)propanoic acid] | 28.2 µM | 0.0145 µM |  |  | 
8 | COC(=O)C1=C(C2CCc3nn(CCC(=O)O)cc3C2)NC(c2nccs2)=NC1c1cccc(F)c1Cl (single isomer, unassigned) [Compound 44b, 3-(5-(6-(2-Chloro-3-fluorophenyl)-5-(methoxycarbonyl)-2-(thiazol-2-yl)-3,6-dihydropyrimidin-4-yl)-4,5,6,7-tetrahydro-2H-indazol-2-yl)propanoic acid] | 21 µM | 0.383 µM |  |  | 
9 | CCOC(=O)C1=C(C2CCc3nn(CCC(=O)O)cc3C2)NC(c2nccs2)=NC1c1ccc(F)cc1Br (single isomer, unassigned) [Compound 39b, 3-(5-(6-(2-Bromo-4-fluorophenyl)-5-(ethoxycarbonyl)-2-(thiazol-2-yl)-3,6-dihydropyrimidin-4-yl)-4,5,6,7-tetrahydro-2H-indazol-2-yl)propanoic acid] | 13.1 µM | 0.165 µM |  |  | 
10 | CCOC(=O)C1=C(C2CCc3nn(CC(C)(C)C(=O)O)cc3C2)NC(c2nccs2)=NC1c1ccc(F)c(F)c1Cl (single isomer, unassigned) [Compound 53a, 3-(5-(6-(2-Chloro-3,4-difluorophenyl)-5-(ethoxycarbonyl)-2-(thiazol-2-yl)-3,6-dihydropyrimidin-4-yl)-4,5,6,7-tetrahydro-2H-indazol-2-yl)-2,2-dimethylpropanoic acid] | 7.2 µM | 0.132 µM |  |  | 
11 | COC(=O)C1=C(C2CCc3nn(CCC(=O)O)cc3C2)NC(c2nccs2)=NC1c1ccc(F)c(F)c1Br (single isomer, unassigned) [Compound 46a, 3-(5-(6-(2-Bromo-3,4-difluorophenyl)-5-(methoxycarbonyl)-2-(thiazol-2-yl)-3,6-dihydropyrimidin-4-yl)-4,5,6,7-tetrahydro-2H-indazol-2-yl)propanoic acid] | 17.3 µM | 0.219 µM |  |  | 
12 | CCOC(=O)C1=C(C2CCc3c(cn(CCC(=O)O)c3C#N)C2)NC(c2nccs2)=NC1c1ccc(F)c(F)c1Cl (centres unmarked) [Compound 62, 3-(5-(6-(2-Chloro-3,4-difluorophenyl)-5-(ethoxycarbonyl)-2-(thiazol-2-yl)-3,6-dihydropyrimidin-4-yl)-1-cyano-4,5,6,7-tetrahydro-2H-isoindol-2-yl)propanoic acid] | 5 µM |  |  |  | 0.0069 µM
13 | COC(=O)C1=C(C2CCc3nn(CCC(C)(C)C(=O)O)cc3C2)NC(c2nccs2)=NC1c1ccc(F)c(F)c1Cl (centres unmarked) [Compound 90c, 4-(5-(6-(2-Chloro-3,4-difluorophenyl)-5-(methoxycarbonyl)-2-(thiazol-2-yl)-3,6-dihydropyrimidin-4-yl)-4,5,6,7-tetrahydro-2H-indazol-2-yl)-2,2-dimethylbutanoic acid] | 13.3 µM |  |  |  | 0.0249 µM
14 | CCOC(=O)C1=C(C2CCc3sc(CCC(=O)O)nc3C2)NC(c2nccs2)=NC1c1ccc(F)c(F)c1Cl (single isomer, unassigned) [Compound 59c, 3-(5-(6-(2-Chloro-3,4-difluorophenyl)-5-(ethoxycarbonyl)-2-(thiazol-2-yl)-3,6-dihydropyrimidin-4-yl)-4,5,6,7-tetrahydrobenzo[d]thiazol-2-yl)propanoic acid] | 4.1 µM |  |  |  | 0.132 µM
15 | CCOC(=O)C1=C(C2CCc3nc(CCC(=O)O)oc3C2)NC(c2nccs2)=NC1c1ccc(F)c(F)c1Cl (single isomer, unassigned) [Compound 58b, 3-(6-(6-(2-Chloro-3,4-difluorophenyl)-5-(ethoxycarbonyl)-2-(thiazol-2-yl)-3,6-dihydropyrimidin-4-yl)-4,5,6,7-tetrahydrobenzo[d]oxazol-2-yl)propanoic acid] | 9.8 µM |  |  |  | 0.0062 µM
16 | COC(=O)C1=C(C2CCc3nn([C@H]4C[C@@H](C(=O)O)C4)cc3C2)NC(c2nccs2)=NC1c1ccc(F)c(F)c1Cl (stereo partly drawn) [Compound 96d, (cis)-3-(5-(6-(2-Chloro-3,4-difluorophenyl)-5-(methoxycarbonyl)-2-(thiazol-2-yl)-3,6-dihydropyrimidin-4-yl)-4,5,6,7-tetrahydro-2H-indazol-2-yl)cyclobutanecarboxylic acid] | 19.3 µM |  |  |  | 0.0247 µM
